Results from patent publication US20210221866A1, “PROTEASE-RESISTANT LIPIDATED GLP-1 ANALOGS” (MEDIMMUNE LIMITED, priority 2015, published 2021).
Where two headings read alike, the source gives them in different places. Square brackets hold non-standard residues; d marks the D form. Peptide text beside a SMILES is read from it. αMeF = C[C@](N)(Cc1ccccc1)C(=O)O; αMeK = C[C@](N)(CCCCN)C(=O)O; Aib = CC(C)(N)C(=O)O

Molecular target: T1, human GLP-1 receptor (GLP-1R) (Homo sapiens, UniProt P43220)
T1 construct: expressed in transfected cells; host or cells: HEK293 cells or CHO cells
T1 sequence (P43220 24-463): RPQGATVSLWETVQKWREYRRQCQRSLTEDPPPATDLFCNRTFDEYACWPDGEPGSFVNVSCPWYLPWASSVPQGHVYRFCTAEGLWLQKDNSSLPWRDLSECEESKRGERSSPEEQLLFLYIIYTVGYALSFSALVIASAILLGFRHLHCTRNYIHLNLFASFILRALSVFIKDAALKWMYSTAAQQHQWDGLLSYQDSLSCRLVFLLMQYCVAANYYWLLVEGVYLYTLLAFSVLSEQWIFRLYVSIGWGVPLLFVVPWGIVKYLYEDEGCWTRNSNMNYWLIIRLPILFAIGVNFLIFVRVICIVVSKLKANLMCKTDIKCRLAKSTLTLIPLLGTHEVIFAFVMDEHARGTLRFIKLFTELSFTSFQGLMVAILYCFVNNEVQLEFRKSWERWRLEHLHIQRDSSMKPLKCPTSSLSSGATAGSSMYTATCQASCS
Experiment: cAMP assay, human GLP-1R cells
Assay type: cell-based
Settings: cAMP activity
Experimental: Sample dilutions are made in duplicate.
A frozen cryo-vial of cells expressing the receptor of interest is thawed rapidly in a water-bath, transferred to pre-warmed assay buffer and spun at 240×g for 5 minutes. Cells are re-suspended in assay buffer at a batch-dependent optimized concentration (e.g. hGCGR cells at 2×10^5 cells/ml, hGLP-1R and hGIPR cells at 1×10^5 cells/ml).
To this, 5 μL cell suspension is added and the plates incubated at room temperature for 30 minutes.
cAMP levels are measured using a commercially available cAMP dynamic 2 HTRF kit (Cisbio, Cat #62AM4PEJ), following the two step protocol as per manufacturer's recommendations. In brief; anti-cAMP cryptate (donor fluorophore) and cAMP-d2 (acceptor fluorophore) are made up separately by diluting each 1/20 in conjugate & lysis buffer provided in the kit. 5 μL anti-cAMP cryptate is added to wells of the assay plate, and 5 μL cAMP-d2 is added to wells except non-specific binding (NSB) wells, to which conjugate and lysis buffer are added. […] EC50 values of the synthetic peptides determined in cAMP assays are then determined.
Data is transformed to % Delta F as described in the manufacturer's guidelines and analyzed by 4-parameter logistic fit to determine EC50 values. […] To compare the balance of activities at the GLP-1R and GCGR between different peptides and across different conditions, these can be correlated, where the EC50's are related to those of comparator peptides.

[1] = mean of n1 and n2, read-out: Mean pM GLP-1R

EC50 [1] [pM] | EC50 (second determination (n2), read-out: Primary assay EC50 GLP-1R n2) [pM] | SMILES
2100 | – | CC(C)[C@H](NC(=O)[C@H](CCC(=O)O)NC(=O)[C@H](CO)NC(=O)[C@H](CO)NC(=O)[C@](C)(Cc1ccccc1)NC(=O)[C@H](CO)NC(=O)CNC(=O)[C@H](CCC(=O)O)NC(=O)C(C)(C)NC(=O)[C@@H](N)Cc1c[nH]cn1)C(=O)N[C@@H](CO)C(=O)N[C@@H](CO)C(=O)N[C@@](C)(Cc1ccccc1)C(=O)N[C@H](C(=O)N[C@@H](CCC(=O)O)C(=O)NCC(=O)N[C@@H](CCC(=O)O)C(=O)N[C@@H](C)C(=O)N[C@@H](C)C(=O)N[C@@](C)(CCCCN)C(=O)N[C@@H](CCC(=O)O)C(=O)N[C@@](C)(Cc1ccccc1)C(=O)N[C@H](C(=O)N[C@@H](C)C(=O)N[C@@](C)(Cc1ccccc1)C(=O)N[C@H](C(=O)N[C@H](C(=O)N[C@@](C)(CCCCN)C(=O)NCC(=O)NCC(N)=O)C(C)C)C(C)C)C(C)C)C(C)C [compound 12] (H-H[Aib]EGS[αMeF]SSEVSS[αMeF]VEGEAA[αMeK]E[αMeF]VA[αMeF]VV[αMeK]GG-NH2; N-terminus assumed)
11.5 | – | CCCCCCCCCCCC(=O)N[C@@H](CCC(=O)N[C@@H](CCC(=O)NCCCC[C@H](NC(=O)[C@H](C)NC(=O)[C@H](C)NC(=O)[C@H](CCC(=O)O)NC(=O)CNC(=O)[C@H](CCC(=O)O)NC(=O)[C@H](CC(C)C)NC(=O)[C@](C)(Cc1ccccc1)NC(=O)[C@H](CO)NC(=O)[C@](C)(CO)NC(=O)[C@@H](NC(=O)[C@H](CC(=O)O)NC(=O)[C@H](CO)NC(=O)[C@@H](NC(=O)[C@](C)(Cc1ccccc1)NC(=O)[C@H](CO)NC(=O)CNC(=O)[C@H](CCC(=O)O)NC(=O)C(C)(C)NC(=O)[C@@H](N)Cc1c[nH]cn1)[C@@H](C)O)C(C)C)C(=O)N[C@@H](CCC(=O)O)C(=O)N[C@@](C)(Cc1ccccc1)C(=O)N[C@H](C(=O)N[C@@H](C)C(=O)N[C@@](C)(Cc1ccccc1)C(=O)N[C@H](C(=O)N[C@H](C(=O)N[C@@](C)(CCCCN)C(=O)NCC(=O)NCC(N)=O)C(C)C)C(C)C)[C@@H](C)CC)C(=O)O)C(=O)O [compound 129]
54 | 55 | CC[C@H](C)[C@H](NC(=O)[C@](C)(Cc1ccccc1)NC(=O)[C@H](CCC(=O)O)NC(=O)[C@H](CCCCNC(=O)COCCOCCNC(=O)COCCOCCNC(=O)CCCCCCCCCCCCCCCCC(=O)O)NC(=O)[C@H](C)NC(=O)[C@H](C)NC(=O)[C@H](CCC(=O)O)NC(=O)CNC(=O)[C@H](CCC(=O)O)NC(=O)[C@H](CC(C)C)NC(=O)[C@](C)(Cc1ccccc1)NC(=O)[C@H](CO)NC(=O)[C@](C)(CO)NC(=O)[C@@H](NC(=O)[C@H](CC(=O)O)NC(=O)[C@H](CO)NC(=O)[C@@H](NC(=O)[C@](C)(Cc1ccccc1)NC(=O)[C@H](CO)NC(=O)CNC(=O)[C@H](CCC(=O)O)NC(=O)C(C)(C)NC(=O)[C@@H](N)Cc1c[nH]cn1)[C@@H](C)O)C(C)C)C(=O)N[C@@H](C)C(=O)N[C@@](C)(Cc1ccccc1)C(=O)N[C@H](C(=O)N[C@H](C(=O)N[C@@](C)(CCCCN)C(=O)NCC(=O)NCC(N)=O)C(C)C)C(C)C [compound 162]
